Where a name gives a salt, the structure may show the parent alone. Read-outs that look alike come from different tables or passages of the source.
System: murine neural precursor cells (neurosphere cultures)
Experiment: HTS of LOPAC library against secondary neurosphere cultures, MTT proliferation assay at 3 μM, day 7 (z score, P value)
Format: cell-based, mouse
[1] = LOPAC library screen at 3 μM, secondary neurosphere cultures, MTT
[2] = LOPAC primary screen, neurosphere MTT proliferation, 3 μM, day 7
[3] = LOPAC library screen, 3 μM, MTT, secondary neurosphere cultures, day 7
[4] = yes = significantly inhibited neurosphere proliferation (P<0.01) in the primary screen
[5] = yes/no: significantly inhibited neurosphere proliferation (P<0.01) in the primary screen
[6] = primary LOPAC screen, 3 μM, MTT, neurosphere proliferation
[7] = yes/no: significantly inhibited neurosphere proliferation in the primary screen
[8] = LOPAC library screen, 3 μM, MTT, neurosphere cultures
[9] = yes/no: significantly inhibited neurosphere proliferation in primary screen
[10] = LOPAC library screen at 3 μM, MTT, secondary neurosphere cultures, screened in singlets
[11] = yes/no: significantly inhibited neurosphere proliferation (P<0.01) in primary screen
[12] = LOPAC screen, neurosphere MTT proliferation, 3 μM, day 7

Row | SMILES | Z score [2] | Z score [6] | Activity [7] | Z Score | also measured
1 | C[C@]12C=CC(=O)C=C1CC[C@H]1[C@@H]3C[C@@H](O)[C@](O)(C(=O)CO)[C@@]3(C)C[C@H](O)[C@@]12F [Triamcinolone] | −0.184 |  |  |  | Activity: no; Z Score [1]: −0.184
2 | Nc1nc(N)c2nc(-c3ccccc3)c(N)nc2n1 [Triamterene] | −4.642 |  |  |  | Z Score [3]: −4.642; Activity [4]: yes
3 | CN1CCN(CCCN2c3ccccc3Sc3ccc(C(F)(F)F)cc32)CC1 [Trifluoperazine dihydrochloride] |  |  |  |  | Z Score (168 h, 3 µM): −9.305; Z score (168 h, 3 µM): −9.305; Activity [5]: yes
4 | O=C(CCCN1CCC(O)(c2cccc(C(F)(F)F)c2)CC1)c1ccc(F)cc1 [Trifluperidol hydrochloride] |  | −1.621 | no |  | Z Score [3]: −1.621
5 | CN(C)CCCN1c2ccccc2Sc2ccc(C(F)(F)F)cc21 [Triflupromazine hydrochloride] | −1.820 |  |  |  | Z Score [3]: −1.82; Activity [5]: no
6 | Cl.OC(CCN1CCCCC1)(c1ccccc1)C1CCCCC1 (stereo not shown) [Trihexylphenidyl hydrochloride] |  | 1.215 | no |  | 
7 | OC(CCN1CCCCC1)(c1ccccc1)C1CCCCC1 (stereo not shown) [Trihexyphenidyl hydrochloride] |  |  |  |  | Z Score [8]: 1.215
8 | COc1cc(Cc2cnc(N)nc2N)cc(OC)c1OC [Trimethoprim] |  | −1.230 | no |  | Z Score [3]: −1.23
9 | CC(CN(C)C)CN1c2ccccc2CCc2ccccc21 (stereo not shown) [Trimipramine maleate] |  | 0.568 | no |  | Z Score [8]: 0.5677
10 | Cc1ccc(/C(=C\CN2CCCC2)c2ccccn2)cc1 [Triprolidine hydrochloride] | −0.406 |  |  |  | Z Score [1]: −0.4061; Activity [9]: no
11 | Cl.NCCc1c[nH]c2ccccc12 [Tryptamine hydrochloride] | 1.245 |  |  | 1.245 | Activity [9]: no
12 | CC(C)(C)NCC(O)c1ccccc1Cl (stereo not shown) [Tulobuterol hydrochloride] | −1.767 |  |  |  | Z Score [3]: −1.767; Activity [9]: no
13 | N#CC(C#N)=Cc1ccc(O)c(O)c1 [Tyrphostin 23] | −0.840 |  |  | −0.8396 | Activity [9]: no
14 | N#CC(C#N)=Cc1cc(O)c(O)c(O)c1 [Tyrphostin 25] | −0.259 |  |  | −0.2591 | Activity [9]: no
15 | N#C/C(=C\c1ccc(O)c(O)c1)C(N)=S [Tyrphostin 47] |  | 0.178 | no | 0.1775 | 
16 | N#CC(C#N)=C(N)/C(C#N)=C/c1cc(O)c(O)c(O)c1 [Tyrphostin 51] |  | −0.918 | no | −0.9177 | 
17 | CC(C)(C)c1cc(C=C(C#N)C#N)cc(C(C)(C)C)c1O [Tyrphostin A9] |  | −1.746 | no |  | Z Score [3]: −1.746
18 | COc1cc(C=C(C#N)C#N)cc(O)c1O [Tyrphostin AG 34] | −2.319 |  |  |  | Z Score [3]: −2.319; Activity [9]: no
19 | N#CC(C#N)=C(N)/C(C#N)=C/c1ccc(O)cc1 [Tyrphostin AG 112] | 0.333 |  |  |  | Z Score [8]: 0.3333; Activity [9]: no
20 | N#CC(C#N)=Cc1ccc([N+](=O)[O-])c(O)c1 [Tyrphostin AG 126] |  | −0.410 | no |  | Z Score [1]: −0.4102
21 | N#C/C(=C\c1ccc(O)c(O)c1)C(=O)NCc1ccccc1 [Tyrphostin AG 490] |  | 1.802 | no |  | Z Score [10]: 1.802
22 | N#C/C(=C\c1ccc(O)c(O)c1)C(=O)Nc1ccccc1 [Tyrphostin AG 494] |  | −2.275 | no | −2.275 | 
23 | C[C@@H](NC(=O)/C(C#N)=C/c1ccc(O)c(O)c1)c1ccccc1 [Tyrphostin AG 527] |  | −1.607 | no |  | Z Score [3]: −1.607
24 | N#C/C(=C\c1ccc(O)c(O)c1)C(=O)N1CCc2ccccc21 [Tyrphostin AG 528] |  | −0.148 | no |  | Z Score [1]: −0.1481
25 | N#C/C(=C\c1ccc(O)c(O)c1)C(=O)NCCCNC(=O)/C(C#N)=C/c1ccc(O)c(O)c1 [Tyrphostin AG 537] |  | −1.249 | no | −1.249 | 
26 | N#C/C(=C\c1ccc(O)c(O)c1)C(=O)c1ccc(O)c(O)c1 [Tyrphostin AG 538] |  | −0.395 | no | −0.3955 | 

Row | SMILES | Z score [2] | Z score [6] | Activity [7] | Z Score | also measured
27 | N#C/C(=C\c1ccc(O)c(O)c1)C(=O)NCCCc1ccccc1 [Tyrphostin AG 555] |  | −0.681 | no |  | Z Score [1]: −0.6812
28 | C[C@H](NC(=O)/C(C#N)=C/c1ccc(O)c(O)c1)c1ccccc1 [Tyrphostin AG 835] |  | 2.230 | no | 2.23 | 
29 | CC(C)(C)c1cc(/C=C(\C#N)C(N)=S)cc(C(C)(C)C)c1O [Tyrphostin AG 879] |  | −1.607 | no |  | Z Score [3]: −1.607
30 | COc1cc2ncnc(Nc3cccc(Cl)c3)c2cc1OC [Tyrphostin AG 1478] | 1.870 |  |  |  | Z Score [10]: 1.87; Activity [5]: no
31 | N#CC(=C(/N)Sc1ccccc1N)/C(C#N)=C(/N)Sc1ccccc1N [U0126] |  | 0.711 | no | 0.711 | 
32 | COc1ccc2c(c1)CC[C@@H]1[C@@H]2CC[C@]2(C)[C@@H](NCCCCCCN3C(=O)C=CC3=O)CC[C@@H]12 [U-73122] |  |  | no |  | 
33 | C[C@]12C=CC(=O)C=C1CC[C@@H]1C2=CC[C@]2(C)[C@@H](C(=O)CN3CCN(c4cc(N5CCCC5)nc(N5CCCC5)n4)CC3)CC[C@@H]12.O=C(O)/C=C\C(=O)O [U-74389G maleate] | −8.942 |  |  |  | Z Score [3]: −8.942; Activity [5]: yes
34 | CCCCC/C=C\C[C@@H](O)/C=C/c1cccc(C[C@@H](O)CCCCO)n1 [U-75302] |  | −0.172 | no | −0.1722 | 
35 | Cc1c(C)c2c(c(C)c1O)CCC(C)(CN1CCN(c3cc(N4CCCC4)nc(N4CCCC4)n3)CC1)O2.Cl.Cl (stereo not shown) [U-83836 dihydrochloride] | 0.954 |  |  | 0.954 | Activity [5]: no
36 | CCCN(CCC)C1Cc2cc(OC)c(OC)cc2C1.O=C(O)/C=C\C(=O)O [U-99194A maleate] |  |  |  | 1.255 | 
37 | CCCN(CCC)C1Cc2cc(OC)c(OC)cc2C1.O=C(O)/C=C\C(=O)O [U-99194A meleate] | 1.255 |  |  |  | Activity [5]: no
38 | CC(C)Oc1cccnc1N(C)C1CCN(Cc2ccccc2)CC1.O=C(O)/C=C\C(=O)O [U-101958 maleate] |  | −2.065 | no | −2.065 | 
39 | Brc1c(NC2=NCCN2)ccc2nccnc12 [UK 14,304] |  |  |  | −0.2103 | Activity: no; Z score: −0.210
40 | COc1ccccc1N1CCN(CCCNc2cc(=O)n(C)c(=O)n2C)CC1 [Urapidil hydrochloride] |  |  | no |  | Z Score (168 h, 3 µM): 0.1572; Z score (168 h, 3 µM): 0.157
41 | COc1ccccc1N1CCN(CCCNc2c(C)c(=O)n(C)c(=O)n2C)CC1 [Urapidil, 5-Methyl-] |  | −0.783 | no |  | Z Score [1]: −0.7831
42 | O=c1ccn([C@@H]2O[C@H](COP(=O)([O-])OP(=O)([O-])[O-])[C@@H](O)[C@H]2O)c(=O)[nH]1.[Na+].[Na+].[Na+] [Uridine 5′-diphosphate sodium] |  |  | no |  | Z Score (168 h, 3 µM): 0.7074; Z score (168 h, 3 µM): 0.707
43 | C[C@H](N)CN1CCc2ccc(Br)cc21.C[C@H](N)CN1CCc2ccc(Br)cc21.O=C(O)/C=C/C(=O)O [VER-3323 hemifumarate salt] | −0.761 |  |  | −0.7614 | Activity [11]: no
44 | COc1ccccc1NC(=O)Nc1nc(-c2cccnc2)nc2ccccc12 [VUF 5574] |  | 0.581 | no | 0.5811 | 
45 | CCCC(CCC)C(=O)O.[Na] [Valproic acid sodium] | −0.095 |  |  |  | Z Score [1]: −0.09493; Activity [4]: no
46 | CCN(CC)C(=O)c1ccc(O)c(OC)c1 [Vanillic acid diethylamide] |  |  |  |  | Z Score [1]: −0.5948; Z score [12]: −0.595; Activity [11]: no
47 | CC[C@]1(O)C[C@H]2CN(CCc3c([nH]c4ccccc34)[C@@](C(=O)OC)(c3cc4c(cc3OC)N(C=O)[C@H]3[C@@](O)(C(=O)OC)[C@H](OC(C)=O)[C@]5(CC)C=CCN6CC[C@]43[C@@H]65)C2)C1 [Vincristine sulfate] | −10.792 |  |  |  | Z Score [3]: −10.79; Activity [5]: yes
48 | CCOC(=O)C1=C[C@]2(CC)CCCN3CCc4c(n1c1ccccc41)[C@@H]32 [Vinpocetine] |  | 0.433 | no |  | Z Score [8]: 0.4329
49 | COc1ccccc1N1CCN(CCN(C(=O)C2CCCCC2)c2ccccn2)CC1.O=C(O)/C=C\C(=O)O [WAY-100635 maleate] |  | −0.497 | no | −0.4965 | 
50 | COc1cccc(OC)c1OCCNCC1COc2ccccc2O1.Cl (stereo not shown) [WB-4101 hydrochloride] |  |  |  | −2.247 | Z score [12]: −2.247; Activity [11]: no
51 | C#C[C@]1(O)CC[C@H]2[C@@H]3CCC4=Cc5nc6nc7ccccc7n6cc5C[C@]4(C)[C@H]3CC[C@@]21C [WIN 62,577] |  | 2.351 | no | 2.351 | 
